# Experiments:
# Type in all cases: cell-based
# [1] = biological target: T1, proteins of HEK293T cells transiently overexpressing caspase-6 (Homo sapiens, UniProt O00567); settings: exp_ref Probe; protein NOP56 (O00567); analysis C6
# T1 sequence (O00567 1-594): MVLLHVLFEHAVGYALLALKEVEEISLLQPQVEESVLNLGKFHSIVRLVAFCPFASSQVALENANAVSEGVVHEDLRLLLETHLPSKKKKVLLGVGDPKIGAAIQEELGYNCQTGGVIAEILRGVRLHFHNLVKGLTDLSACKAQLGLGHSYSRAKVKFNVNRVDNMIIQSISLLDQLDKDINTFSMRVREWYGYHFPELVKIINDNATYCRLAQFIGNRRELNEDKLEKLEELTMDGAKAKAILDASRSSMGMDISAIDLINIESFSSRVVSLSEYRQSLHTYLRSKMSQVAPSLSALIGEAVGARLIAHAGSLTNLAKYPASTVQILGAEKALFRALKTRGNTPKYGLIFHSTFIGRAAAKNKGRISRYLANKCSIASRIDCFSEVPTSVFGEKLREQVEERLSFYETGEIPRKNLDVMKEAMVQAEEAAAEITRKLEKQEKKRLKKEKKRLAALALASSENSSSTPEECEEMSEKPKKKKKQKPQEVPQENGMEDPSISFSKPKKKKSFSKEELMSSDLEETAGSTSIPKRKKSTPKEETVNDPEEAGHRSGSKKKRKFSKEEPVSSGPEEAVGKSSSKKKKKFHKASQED
# [2] = biological target: proteins of HEK293T cells transiently overexpressing caspase-6 (Homo sapiens, UniProt O14979); settings: exp_ref Probe; protein HNRNPDL (O14979); analysis C6
# [3] = biological target: proteins of HEK293T cells transiently overexpressing caspase-6 (Homo sapiens, UniProt O43707); settings: protein ACTN4 (O43707)
# [4] = biological target: proteins of HEK293T cells transiently overexpressing caspase-6 (Homo sapiens, UniProt P07900); settings: exp_ref Probe; protein HSP90AA1 (P07900); analysis C6
# [5] = biological target: proteins of HEK293T cells transiently overexpressing caspase-6 (Homo sapiens, UniProt P20700); settings: exp_ref Probe; protein LMNB1 (P20700); analysis C6
# [6] = biological target: proteins of HEK293T cells transiently overexpressing caspase-6 (Homo sapiens, UniProt P21333)
# [7] = biological target: proteins of HEK293T cells transiently overexpressing caspase-6 (Homo sapiens, UniProt P22102); settings: exp_ref Probe; protein GART (P22102); analysis C6
# [8] = biological target: proteins of HEK293T cells transiently overexpressing caspase-6 (Homo sapiens, UniProt P31948)
# [9] = biological target: proteins of HEK293T cells transiently overexpressing caspase-6 (Homo sapiens, UniProt P33993); settings: Probe; protein MCM7 P33993
# [10] = biological target: proteins of HEK293T cells transiently overexpressing caspase-6 (Homo sapiens, UniProt P36578); settings: exp_ref Probe; protein RPL4 (P36578); analysis C6
# [11] = biological target: proteins of HEK293T cells transiently overexpressing caspase-6 (Homo sapiens, UniProt P37802); settings: exp_ref Probe; protein TAGLN2 (P37802); analysis C6
# [12] = biological target: proteins of HEK293T cells transiently overexpressing caspase-6 (Homo sapiens, UniProt P46782); settings: protein RPS5 (P46782)
# [13] = biological target: proteins of HEK293T cells transiently overexpressing caspase-6 (Homo sapiens, UniProt P60174); settings: exp_ref Probe; protein TPI1 (P60174); analysis C6
# [14] = biological target: T2, proteins of HEK293T cells transiently overexpressing caspase-6 (Homo sapiens, UniProt P62258); settings: protein YWHAE (P62258)
# T2 sequence (P62258 1-255): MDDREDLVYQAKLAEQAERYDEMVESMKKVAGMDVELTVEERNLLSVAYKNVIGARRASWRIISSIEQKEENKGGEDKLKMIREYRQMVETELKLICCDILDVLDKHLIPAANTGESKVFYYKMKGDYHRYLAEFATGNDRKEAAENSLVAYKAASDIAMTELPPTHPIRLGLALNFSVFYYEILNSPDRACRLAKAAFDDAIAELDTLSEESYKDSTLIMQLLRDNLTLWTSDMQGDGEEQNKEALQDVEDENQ
# [15] = biological target: proteins of HEK293T cells transiently overexpressing caspase-6 (Homo sapiens, UniProt P62888); settings: exp_ref Probe; protein RPL30 (P62888); analysis C6
# [16] = biological target: proteins of HEK293T cells transiently overexpressing caspase-6 (Homo sapiens, UniProt Q04917); settings: Probe; protein YWHAH Q04917
# [17] = biological target: proteins of HEK293T cells transiently overexpressing caspase-6 (Homo sapiens, UniProt Q16881); settings: exp_ref Probe; protein TXNRD1 (Q16881); analysis C6
# [18] = biological target: proteins of HEK293T cells transiently overexpressing caspase-6 (Homo sapiens, UniProt Q9BRX8); settings: Probe; protein FAM213A Q9BRX8
# [19] = biological target: proteins of HEK293T cells transiently overexpressing caspase-6 (Homo sapiens, UniProt Q9NTK5); settings: protein OLA1 (Q9NTK5), analysis C6
# Chain of proteins of HEK293T cells transiently overexpressing caspase-6 (Homo sapiens, UniProt P21333) (P21333 whole entry): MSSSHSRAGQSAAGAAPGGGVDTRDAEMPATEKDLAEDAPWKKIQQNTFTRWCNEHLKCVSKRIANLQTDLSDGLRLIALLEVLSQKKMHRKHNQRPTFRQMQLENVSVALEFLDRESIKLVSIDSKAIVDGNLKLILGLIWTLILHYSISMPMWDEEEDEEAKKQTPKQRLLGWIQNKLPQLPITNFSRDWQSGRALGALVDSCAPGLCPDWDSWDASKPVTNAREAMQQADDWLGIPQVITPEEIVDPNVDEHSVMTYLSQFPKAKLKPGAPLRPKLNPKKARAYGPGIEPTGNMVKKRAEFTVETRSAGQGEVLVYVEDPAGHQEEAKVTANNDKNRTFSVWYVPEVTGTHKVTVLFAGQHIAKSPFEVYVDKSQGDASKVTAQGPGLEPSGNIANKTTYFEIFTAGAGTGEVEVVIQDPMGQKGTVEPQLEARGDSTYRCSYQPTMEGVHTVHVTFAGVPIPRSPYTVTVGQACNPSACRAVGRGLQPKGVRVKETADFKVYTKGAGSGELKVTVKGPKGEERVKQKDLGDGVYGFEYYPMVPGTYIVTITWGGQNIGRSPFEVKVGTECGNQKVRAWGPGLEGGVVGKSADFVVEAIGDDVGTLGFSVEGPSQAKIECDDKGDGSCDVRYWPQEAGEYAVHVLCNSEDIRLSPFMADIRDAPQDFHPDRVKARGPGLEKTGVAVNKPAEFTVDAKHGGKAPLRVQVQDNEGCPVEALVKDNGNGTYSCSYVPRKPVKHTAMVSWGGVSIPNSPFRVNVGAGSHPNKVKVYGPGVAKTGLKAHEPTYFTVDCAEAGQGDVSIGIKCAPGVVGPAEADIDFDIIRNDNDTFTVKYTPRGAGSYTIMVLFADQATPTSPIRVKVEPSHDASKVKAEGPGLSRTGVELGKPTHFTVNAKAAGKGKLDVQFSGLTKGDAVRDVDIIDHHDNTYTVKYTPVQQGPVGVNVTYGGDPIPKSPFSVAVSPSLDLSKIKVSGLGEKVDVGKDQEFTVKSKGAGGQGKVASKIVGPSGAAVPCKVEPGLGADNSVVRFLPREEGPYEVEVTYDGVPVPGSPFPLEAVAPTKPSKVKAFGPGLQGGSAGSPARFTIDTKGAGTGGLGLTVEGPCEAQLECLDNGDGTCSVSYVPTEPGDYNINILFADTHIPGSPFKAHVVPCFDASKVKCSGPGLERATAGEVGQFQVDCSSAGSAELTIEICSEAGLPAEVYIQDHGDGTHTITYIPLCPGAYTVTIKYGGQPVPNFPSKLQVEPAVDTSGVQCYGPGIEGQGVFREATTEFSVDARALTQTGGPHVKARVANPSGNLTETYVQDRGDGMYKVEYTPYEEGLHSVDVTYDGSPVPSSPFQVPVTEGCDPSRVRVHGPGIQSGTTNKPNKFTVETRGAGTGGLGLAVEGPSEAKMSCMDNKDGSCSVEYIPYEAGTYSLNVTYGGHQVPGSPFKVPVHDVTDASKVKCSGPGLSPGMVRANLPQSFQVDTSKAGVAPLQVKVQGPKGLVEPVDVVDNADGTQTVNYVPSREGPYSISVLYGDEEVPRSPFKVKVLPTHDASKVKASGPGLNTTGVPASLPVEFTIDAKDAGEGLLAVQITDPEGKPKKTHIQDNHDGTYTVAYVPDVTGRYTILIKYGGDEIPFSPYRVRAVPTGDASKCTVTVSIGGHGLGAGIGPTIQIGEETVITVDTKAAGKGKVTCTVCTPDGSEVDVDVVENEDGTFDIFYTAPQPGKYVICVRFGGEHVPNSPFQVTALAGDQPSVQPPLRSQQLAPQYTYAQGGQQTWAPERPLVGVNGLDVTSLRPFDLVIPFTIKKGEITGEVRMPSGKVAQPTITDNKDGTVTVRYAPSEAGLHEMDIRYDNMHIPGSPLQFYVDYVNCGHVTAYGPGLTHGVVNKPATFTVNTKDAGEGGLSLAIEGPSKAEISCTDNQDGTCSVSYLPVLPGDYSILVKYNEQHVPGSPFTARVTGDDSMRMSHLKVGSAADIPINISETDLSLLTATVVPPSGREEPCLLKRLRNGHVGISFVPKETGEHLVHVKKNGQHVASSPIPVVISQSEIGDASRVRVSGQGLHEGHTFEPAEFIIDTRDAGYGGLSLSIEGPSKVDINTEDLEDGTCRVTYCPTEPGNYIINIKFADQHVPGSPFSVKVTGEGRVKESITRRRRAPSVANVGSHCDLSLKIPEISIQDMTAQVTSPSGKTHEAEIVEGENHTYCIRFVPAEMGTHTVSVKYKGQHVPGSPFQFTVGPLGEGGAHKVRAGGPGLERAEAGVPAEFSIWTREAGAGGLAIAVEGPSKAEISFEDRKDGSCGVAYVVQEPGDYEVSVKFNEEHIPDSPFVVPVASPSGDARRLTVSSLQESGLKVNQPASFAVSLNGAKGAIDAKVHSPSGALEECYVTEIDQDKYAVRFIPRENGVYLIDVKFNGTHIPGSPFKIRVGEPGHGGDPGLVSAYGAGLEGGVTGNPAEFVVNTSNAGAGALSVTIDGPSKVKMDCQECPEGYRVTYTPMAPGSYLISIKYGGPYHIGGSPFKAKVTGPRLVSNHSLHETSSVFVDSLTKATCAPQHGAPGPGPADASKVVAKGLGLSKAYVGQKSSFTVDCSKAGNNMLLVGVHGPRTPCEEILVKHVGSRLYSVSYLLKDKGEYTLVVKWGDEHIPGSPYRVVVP
# Chain of proteins of HEK293T cells transiently overexpressing caspase-6 (Homo sapiens, UniProt P31948) (P31948 whole entry): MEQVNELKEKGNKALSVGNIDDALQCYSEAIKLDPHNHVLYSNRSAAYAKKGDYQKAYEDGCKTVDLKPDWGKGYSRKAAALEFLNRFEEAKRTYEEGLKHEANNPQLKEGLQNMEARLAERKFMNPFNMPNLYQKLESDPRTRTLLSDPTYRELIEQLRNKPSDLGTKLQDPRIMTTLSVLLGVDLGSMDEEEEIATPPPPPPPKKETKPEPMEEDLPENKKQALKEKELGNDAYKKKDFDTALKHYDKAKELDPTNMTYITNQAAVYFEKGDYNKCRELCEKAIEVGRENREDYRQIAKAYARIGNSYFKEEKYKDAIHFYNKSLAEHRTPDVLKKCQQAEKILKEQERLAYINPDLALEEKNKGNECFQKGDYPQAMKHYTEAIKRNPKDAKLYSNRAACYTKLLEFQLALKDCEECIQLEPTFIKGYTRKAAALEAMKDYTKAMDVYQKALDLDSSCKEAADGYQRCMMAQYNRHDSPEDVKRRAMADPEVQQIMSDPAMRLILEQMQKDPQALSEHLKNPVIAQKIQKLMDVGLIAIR
# Chain of proteins of HEK293T cells transiently overexpressing caspase-6 (Homo sapiens, UniProt O43707) (O43707 whole entry): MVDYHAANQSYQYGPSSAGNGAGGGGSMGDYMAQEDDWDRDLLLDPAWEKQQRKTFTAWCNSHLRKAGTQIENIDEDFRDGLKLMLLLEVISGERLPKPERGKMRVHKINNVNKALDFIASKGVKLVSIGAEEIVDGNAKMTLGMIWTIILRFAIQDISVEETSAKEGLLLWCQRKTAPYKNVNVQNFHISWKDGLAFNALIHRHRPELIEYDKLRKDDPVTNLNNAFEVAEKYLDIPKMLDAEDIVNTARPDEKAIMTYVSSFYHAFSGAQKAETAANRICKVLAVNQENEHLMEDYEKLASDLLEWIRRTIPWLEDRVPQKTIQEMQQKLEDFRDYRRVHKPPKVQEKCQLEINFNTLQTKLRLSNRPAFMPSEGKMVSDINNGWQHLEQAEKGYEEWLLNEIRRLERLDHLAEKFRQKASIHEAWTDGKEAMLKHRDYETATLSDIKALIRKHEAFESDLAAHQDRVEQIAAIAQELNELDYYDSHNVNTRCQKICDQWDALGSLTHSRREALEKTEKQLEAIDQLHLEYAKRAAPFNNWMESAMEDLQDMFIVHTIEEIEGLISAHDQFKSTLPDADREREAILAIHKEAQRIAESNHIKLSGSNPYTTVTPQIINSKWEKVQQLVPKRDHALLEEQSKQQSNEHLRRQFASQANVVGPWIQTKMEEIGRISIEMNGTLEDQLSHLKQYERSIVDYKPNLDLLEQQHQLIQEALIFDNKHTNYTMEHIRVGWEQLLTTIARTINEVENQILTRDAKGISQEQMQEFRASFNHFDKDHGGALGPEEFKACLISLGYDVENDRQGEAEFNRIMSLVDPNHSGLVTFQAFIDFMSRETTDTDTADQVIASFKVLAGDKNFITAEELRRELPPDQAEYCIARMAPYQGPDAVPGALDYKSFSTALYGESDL
# Chain of proteins of HEK293T cells transiently overexpressing caspase-6 (Homo sapiens, UniProt Q04917) (Q04917 whole entry): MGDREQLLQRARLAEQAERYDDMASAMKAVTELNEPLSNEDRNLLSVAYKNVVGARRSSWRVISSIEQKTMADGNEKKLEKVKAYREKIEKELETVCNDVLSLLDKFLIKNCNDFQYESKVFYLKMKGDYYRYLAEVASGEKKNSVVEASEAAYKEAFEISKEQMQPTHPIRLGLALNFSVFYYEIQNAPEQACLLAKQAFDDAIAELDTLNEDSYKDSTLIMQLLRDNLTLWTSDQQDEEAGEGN
# Chain of proteins of HEK293T cells transiently overexpressing caspase-6 (Homo sapiens, UniProt P33993) (P33993 whole entry): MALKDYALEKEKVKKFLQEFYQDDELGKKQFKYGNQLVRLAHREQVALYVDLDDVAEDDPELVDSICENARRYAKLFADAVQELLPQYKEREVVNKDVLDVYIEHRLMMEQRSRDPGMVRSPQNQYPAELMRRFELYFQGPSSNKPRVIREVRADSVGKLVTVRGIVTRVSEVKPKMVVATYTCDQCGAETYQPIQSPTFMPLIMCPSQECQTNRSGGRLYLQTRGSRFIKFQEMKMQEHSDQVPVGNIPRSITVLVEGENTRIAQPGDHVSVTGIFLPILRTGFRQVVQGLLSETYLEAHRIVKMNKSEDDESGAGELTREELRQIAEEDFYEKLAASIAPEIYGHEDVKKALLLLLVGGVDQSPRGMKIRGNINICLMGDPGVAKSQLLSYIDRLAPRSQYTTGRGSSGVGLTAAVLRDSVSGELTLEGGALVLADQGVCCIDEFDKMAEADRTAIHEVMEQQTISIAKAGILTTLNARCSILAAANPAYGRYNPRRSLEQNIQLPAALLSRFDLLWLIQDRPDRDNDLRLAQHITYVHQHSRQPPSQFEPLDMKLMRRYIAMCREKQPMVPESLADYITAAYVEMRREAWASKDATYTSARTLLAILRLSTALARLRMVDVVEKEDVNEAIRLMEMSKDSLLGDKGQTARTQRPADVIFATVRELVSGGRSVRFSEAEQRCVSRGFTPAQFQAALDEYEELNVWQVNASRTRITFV
smiles,measurement,setting,value
C#CCOc1ccc([C@@H]2C[C@@H](C(=O)Nc3ccc(OC(F)(F)F)cc3)CN(S(=O)(=O)C=C)C2)cc1 (relative stereo) [13-t],enrich.exp.med,[1],-0.321
same,enrich.exp.med,[2],-0.3286
same,enrich.exp.med,"[3]; exp_ref Probe, analysis C6",0.6607
same,enrich.exp.med.lin,[3],1.581
same,enrich.exp.med.log2,[3],0.6607
same,enrich.exp.med,[4],0.7182
same,enrich.exp.med,[5],-0.2652
same,enrich.exp.med,"[6]; Probe, protein FLNA P21333",-0.9107
same,enrich.exp.med.lin,[6]; protein FLNA (P21333),0.5319
same,enrich.exp.med.log2,[6]; protein FLNA (P21333),-0.9107
same,enrich.exp.med,[7],0.2203
same,enrich.exp.med,"[8]; Probe, protein STIP1 P31948",-0.591
same,enrich.exp.med.lin,[8]; protein STIP1 (P31948),0.6639
same,enrich.exp.med.log2,[8]; protein STIP1 (P31948),-0.591
same,enrich.exp.med,[9],-1.046
same,enrich.exp.med,[10],0.4261
same,enrich.exp.med,[11],0.7525
same,enrich.exp.med.lin,[12],3.054
same,enrich.exp.med.log2,[12],1.611
same,enrich.exp.med,"[12]; exp_ref Probe, analysis C6",1.611
same,enrich.exp.med,[13],0.1365
same,enrich.exp.med,"[14]; exp_ref Probe, analysis C6",0.9895
same,enrich.exp.med.lin,[14],1.986
same,enrich.exp.med.log2,[14],0.9895
same,enrich.exp.med,[15],0.3258
same,enrich.exp.med,[16],-1.452
same,enrich.exp.med,[17],-0.009915
same,enrich.exp.med,[18],-8.503
same,enrich.exp.med.lin,[19]; Expt Probe,6.528
same,enrich.exp.med.log2,[19]; Expt Probe,2.707
same,enrich.exp.med,[19]; exp_ref Probe,2.707
